Literature values in patent publication US8415392B2, “Combined use of L-carnitine, acetyle L-carnitine and propionyl L-carnitine for the treatment of oligoasthenoteratospermia” (Sigma-Tau Industrie Farmaceutiche Riunite, S.p.A., priority 2002, dated 2013).

Assays:
[1] = system: patients with idiopathic asthenospermia; conditions: L-carnitine administration
[2] = system: patients with idiopathic oligoastheno-spermia; conditions: acetyl L-carnitine
[3] = Fertilität 4.1-4, 1988, L-carnitine therapy

Row | SMILES | patients in whom sperm motility improved and sperm count increased [1] | sperm motility (infertile patients; Andrologia 26:155-159, 1994, quantitative and qualitative) | carnitine levels in the spermatozoa (infertile patients; [3]) | sperm motility and sperm count (infertile patients; [3]) | sperm quality (infertile patients; Loumbakis et al. 1996, preliminary data) | sperm density [2] | sperm motility [2]
1 | C[N+](C)(C)C[C@H](O)CC(=O)[O-] [L-carnitine] | 37 out of 47 | significant improvement | increase | increase | may have a positive effect | – | –
2 | CC(=O)O[C@H](CC(=O)[O-])C[N+](C)(C)C [acetyl L-carnitine] | – | – | – | – | – | no effect | progressive increase
